In the data set the test system is GLK. As to the kind of experiment: GLK shRNA knockdown in T cells of Lck-GLK Tg mice, flow cytometry of IL-17A-producing T cells. Format: cell-based, mouse. The settings on record: anti-CD3 3 h, day 3 post-transfection. How it is done: (A) Hematoxylin and eosin-stained sections of indicated organs from mice. Arrows, infiltrating immune cells. Bar, 100 μm. (B) Levels of serum autoantibodies from mice were determined by ELISA assays. The levels are presented relative to the value from one of wild-type mice. (C) The serum levels of cytokines in mice were determined by ELISA assays. (D) The serum levels of autoantibodies in Lck-GLK and Lck-GLK/IL-17A KO mice were determined by ELISA assays. The levels are presented relative to the value from one of Lck-GLK mice. (E) IL-17A expression was attenuated by GLK shRNA. Murine primary splenic T cells were transfected with GFP-human GLK shRNA and a control GFP vector. The transfected T cells were stimulated with anti-mouse CD3 antibodies for 3 h and then determined by flow cytometry at day 3 post-transfection. […] WT, wild-type littermate controls; Lck-GLK, T-cell-specific GLK transgenic mice. Lck-GLK/IL-17A KO, Lck-GLK; IL-17A-deficient mice. ANA, anti-nuclear antibody; α-dsDNA, anti-dsDNA antibody; RF, rheumatoid factor. *, P value<0.05; **, P value<0.01 (two-tailed Student's t-test).
Human Jurkat T leukaemia cells (TIB-152) were cultured in RPMI-1640 medium (Invitrogen) containing 10% fetal calf serum plus penicillin (10 units per ml) and streptomycin ([…]). […]

Consider “GLK shRNA: human GLK shRNA (5′-GTGCCACTTAGAATGTTTGAAA-3, SEQ ID NO: 7) subcloned into pSUPER-GFP vector”, for which the “IL-17A overproduction in T cells from Lck-GLK Tg mice” value is “abolished”.

The values are drawn from US11360080B2, “AhR-ROR-γt complex as a biomarker and therapeutic target for autoimmune disease and IL-17A-associated disease” (NATIONAL HEALTH RESEARCH INSTITUTES, priority 2018, dated 2022).
